The target in this assay is T1, BRD4 bromodomains (Homo sapiens, UniProt O60885).
T1 construct: fused on or other part: T7 phage capsid protein (phage-display fusion; the phage DNA is read out by qPCR)
Kind of assay: BROMOscan bromodomain competition binding assay (DiscoveRx). Conditions: Kd from 11 compound concentrations ranging from 0 to 10 μM, read-out: BROMOscan Relative Activity. A digest of the protocol:
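Compounds in 0.1% DMSO/0.9% MEG competed with a solid-phase acetylated peptide for T7 phage-fused BRD4 bromodomains, with the retained bromodomain measured by qPCR.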

For 23 molecules, Kd results are on record in US11028079B2 (ConverGene LLC, priority 2015, dated 2021).

SMILES strings stand for the structures.

As for `Cc1noc(C)c1-c1ccc2nc(N3CCN(CCN(C)C)CC3)nc(N[C@H](CO)c3ccccc3)c2c1` [Example 173, (S)-2-((2-(4-(2-(dimethylamino)ethyl)piperazin-1-yl)-6-(3,5-dimethylisoxazol-4-yl)quinazolin-4-yl)amino)-2-phenylethanol], the Kd is under 500 nM.

On to `Cc1noc(C)c1-c1ccc2nc(C(=O)Nc3ccncc3F)nc(NCc3cccc(Cl)c3)c2c1` [Example 223, 4-((3-chlorobenzyl)amino)-6-(3,5-dimethylisoxazol-4-yl)-N-(3-fluoropyridin-4-yl)quinazoline-2-carboxamide], for which the Kd is over 5000 nM.

As for `Cc1noc(C)c1-c1ccc2nc(N3CCN(CCN(C)C)CC3)nc(O)c2c1` [Example 68, 2-(4-(2-(dimethylamino)ethyl)piperazin-1-yl)-6-(3,5-dimethylisoxazol-4-yl)quinazolin-4-ol], the Kd lay in the range of 500 to 5000 nM.

On to `Cc1noc(C)c1-c1ccc2nc(N3CCC4(CC3)CC(O)C4)nc(N3CCOC[C@@H]3c3ccccc3)c2c1` [Example 313, (S)-7-(6-(3,5-dimethylisoxazol-4-yl)-4-(3-phenylmorpholino)quinazolin-2-yl)-7-azaspiro 13.51 nonan-2-ol], for which the Kd was under 500 nM.

For `Cc1noc(C)c1-c1ccc2nc(N3CCN(S(C)(=O)=O)CC3)nc(N3CCOC[C@H]3c3ccccc3)c2c1` [Example 268, (R)-4-(6-(3,5-dimethylisoxazol-4-yl)-2-(4-(methylsulfonyl)piperazin-1-yl)quinazolin-4-yl)-3-phenylmorpholine], the Kd was under 500 nM.

Regarding `Cc1cncc(CNC(=O)c2nc(NCc3cccc(Cl)c3)c3cc(-c4c(C)noc4C)ccc3n2)c1` [Example 193, 4-((3-chlorobenzyl)amino)-6-(3,5-dimethylisoxazol-4-yl)-N-((5-methylpyridin-3-yl)methyl)quinazoline-2-carboxamide], the Kd was under 500 nM.

Take `Cc1noc(C)c1-c1ccc2nc(C(=O)N[C@H]3CC[C@H](O)CC3)cc(NCc3cccc(Cl)c3)c2c1` [Example 274, 4-((3-chlorobenzyl)amino)-6-(3,5-dimethylisoxazol-4-yl)-N-((trans)-4-hydroxycyclohexyl)quinoline-2-carboxamide]: the Kd is under 500 nM.

As to `Cc1noc(C)c1-c1ccc2nc(N3CCN(C[C@H](C)O)CC3)nc(N3CCOC[C@@H]3c3ccccc3)c2c1` [Example 308, (S)-1-(4-(6-(3,5-dimethylisoxazol-4-yl)-4-((S)-3-phenylmorpholino)quinazolin-2-yl)piperazin-1-yl)propan-2-ol], the Kd was under 500 nM.

Consider `Cc1noc(C)c1-c1ccc2nc(N3CCN(CCN(C)C)CC3)nc(NCc3ccccc3Cl)c2c1` [Example 74, N-(2-chlorobenzyl)-2-(4-(2-(dimethylamino)ethyl)piperazin-1-yl)-6-(3,5-dimethylisoxazol-4-yl)quinazolin-4-amine], for which the Kd is under 500 nM.

For the molecule `Cc1noc(C)c1-c1ccc2nc(C(=O)NC3CCOCC3)nc(NCc3cccc(Cl)c3)c2c1` [Example 226, 4-((3-chlorobenzyl)amino)-6-(3,5-dimethylisoxazol-4-yl)-N-(tetrahydro-2H-pyran-4-yl)quinazoline-2-carboxamide], the Kd is under 500 nM.

Turning to `Cc1noc(C)c1-c1ccc2nc(N3CCC(CO)CC3)nc(NCc3cccc(Cl)c3)c2c1` [Example 23, (1-(4-((3-chlorobenzyl)amino)-6-(3,5-dimethylisoxazol-4-yl)quinazolin-2-yl)piperidin-4-yl)methanol], the Kd fell in the range of 500 to 5000 nM.

Regarding `Cc1noc(C)c1-c1ccc2nc(N3CCN(CCN(C)C)CC3)nc(NCc3ccco3)c2c1` [Example 79, 2-(4-(2-(dimethylamino)ethyl)piperazin-1-yl)-6-(3,5-dimethylisoxazol-4-yl)-N-(furan-2-ylmethyl)quinazolin-4-amine], the Kd was 500 to 5000 nM.

In the case of `Cc1cc(-c2ccc3nc(N4CCN(CCN(C)C)CC4)nc(NCc4cccc(Cl)c4)c3c2)cnc1O` [Example 91, 5-(4-((3-chlorobenzyl)amino)-2-(4-(2-(dimethylamino)ethyl)piperazin-1-yl)quinazolin-6-yl)-3-methylpyridin-2-ol], the Kd was under 500 nM.

Take `Cc1noc(C)c1-c1ccc2nc(C(=O)N[C@H]3C[C@H](O)C3)nc(NCc3cccc(Cl)c3)c2c1` [Example 253, 4-((3-chlorobenzyl)amino)-6-(3,5-dimethylisoxazol-4-yl)-N-((trans)-3-hydroxycyclobutyl)quinazoline-2-carboxamide]: the Kd is under 500 nM.

Regarding `CNC(=O)Cn1cc(-c2nc(NCc3cncc(Cl)c3)c3cc(-c4c(C)noc4C)ccc3n2)cn1` [Example 141, 2-(4-(4-(((5-chloropyridin-3-yl)methyl)amino)-6-(3,5-dimethylisoxazol-4-yl)quinazolin-2-yl)-1H-pyrazol-1-yl)-N-methylacetamide], the Kd was under 500 nM.

As for `Cc1noc(C)c1-c1ccc2nc(N3CCN(CCO)CC3)nc(NCc3cccc(Cl)c3)c2c1` [Example 20, 2-(4-(4-((3-chlorobenzyl)amino)-6-(3,5-dimethylisoxazol-4-yl)quinazolin-2-yl)piperazin-1-yl)ethanol], the Kd was under 500 nM.

Consider `Cc1noc(C)c1-c1ccc2nc(-c3cnn(CC(=O)O)c3)nc(NCc3cccc(Cl)c3)c2c1` [Example 166, 2-(4-(4-((3-chlorobenzyl)amino)-6-(3,5-dimethylisoxazol-4-yl)quinazolin-2-yl)-1H-pyrazol-1-yl)acetic acid], for which the Kd was under 500 nM.

For the molecule `CC(=O)N1CCC(n2cc(-c3nc(N4CCOC[C@@H]4c4ccccc4)c4cc(-c5c(C)noc5C)ccc4n3)cn2)CC1` [Example 327, (S)-1-(4-(4-(6-(3,5-dimethylisoxazol-4-yl)-4-(3-phenylmorpholino)quinazolin-2-yl)-1H-pyrazol-1-yl)piperidin-1-yl)ethan-1-one], the Kd is under 500 nM.

Consider `Cc1noc(C)c1-c1ccc2nc(N3CCN(C(=O)CN)CC3)nc(NCc3cncc(Cl)c3)c2c1` [Example 131, 2-amino-1-(4-(4-(((5-chloropyridin-3-yl)methyl)amino)-6-(3,5-dimethylisoxazol-4-yl)quinazolin-2-yl)piperazin-1-yl)ethanone], for which the Kd is under 500 nM.

`Cc1noc(C)c1-c1ccc2nc(N3CCN(CC(N)=O)CC3)nc(N3CCOC[C@@H]3c3ccccc3)c2c1` [Example 307, (S)-2-(4-(6-(3,5-dimethylisoxazol-4-yl)-4-(3-phenylmorpholino)quinazolin-2-yl)piperazin-1-yl)acetamide]: the Kd is under 500 nM.

For `CN(C)CCN1CCN(c2nc(NCc3cccc(Cl)c3)c3cc(-c4ccnc(O)c4)ccc3n2)CC1` [Example 96, 4-(4-((3-chlorobenzyl)amino)-2-(4-(2-(dimethylamino)ethyl)piperazin-1-yl)quinazolin-6-yl)pyridin-2-ol], the Kd is over 5000 nM.

For `Cc1noc(C)c1-c1ccc2nc(Oc3ccc(Cl)cc3)nc(NCc3cccc(Cl)c3)c2c1` [Example 169, N-(3-chlorobenzyl)-2-(4-chlorophenoxy)-6-(3,5-dimethylisoxazol-4-yl)quinazolin-4-amine], the Kd is over 5000 nM.

Consider `Cc1noc(C)c1-c1ccc2nc(N3CCN(CCN(C)C)CC3)nc(NC3(c4cccc(Cl)c4)CC3)c2c1` [Example 170, N-(1-(3-chlorophenyl)cyclopropyl)-2-(4-(2-(dimethylamino)ethyl)piperazin-1-yl)-6-(3,5-dimethylisoxazol-4-yl)quinazolin-4-amine], for which the Kd was under 500 nM.
